Laboratory results: patent US20250120943A1, “RIFAMYCIN OPHTHALMIC COMPOSITION AND USE THEREOF” (AMD THERAPEUTICS LLC, priority 2022, published 2025)
Marks after values point to notes of the source that are not given here.

Tests used:
[1] = Rabbit, 0.5%, 50 μL, 250 μg; Sigurdsson et al. 2007; cited from earlier work
[2] = Retina exposure level of rifampicin after topical eye drops (LC/MS); type: in vivo, Sprague-Dawley rats; conditions: rat, topical eye drops 0.25% rifampicin (Ex. 1A), average of n = 3
Experimental: The remaining two rats received the same application, but 10 drops of the eye drops, in each eye under isoflurane sedation. A single drop contained 5 μL of the above-described formulation, and application of each drug drop was carried out with intervals of 30 minutes. After the eye drop application, the retina was excised from each rat under a dissection microscope. In addition, “non-treated” negative controls were used, and the retina was excised from two rats without performing any treatments on the rats. The retina was placed in a 1.5-ml microcentrifuge tube (1 retina/tube), and was fully washed with DPBS. After completion of the washing procedures, the retinal tissues in the microcentrifuge tube were frozen in dry ice, and were then preserved for quantification by LC/MS analysis.
At time points of 1 hour, 3 hours, and 7 hours after the application of the eye drops, the retinal tissues were excised from the rats under a dissection microscope. In addition, “non-treated” negative controls were used, and the retina was excised from one rat without performing any treatments on the rats. The retina was placed in a 1.5-ml microcentrifuge tube (1 retina/tube), and was fully washed with DPBS. After completion of the washing procedures, the retinal tissues in the microcentrifuge tube were frozen in dry ice, and were then preserved for quantification by LC/MS analysis. […]

[3] = system: Neovascularization in retina of oxygen-induced retinopathy rat models; test: Oxygen-induced retinopathy rat model, capillaries counted in histology sections; type: in vivo, Sprague-Dawley rat; conditions: vehicle only 16.3
[4] = system: CNV induced in sub-retina tissues; test: Mouse laser-induced CNV model, CNV area by FITC-dextran fluorescence; type: in vivo, C57BL/6J mice; conditions: for Average CNV area (%): n = 10, day 7, vehicle = 100
Experimental: Eyes of C57BL/6J mice were laser irradiated, and CNV were induced in sub-retina tissues in the eyes. […] In 7 days after the laser irradiation, a FITC-dextran solution was administered to the tail vein. The eyeballs were removed under euthanasia, and the removed eyeballs were fixed with 4% paraformaldehyde phosphate buffer. The cornea, iris and lens were excised, and retinal tissues other than retinal pigment epithelium cells were stripped using a microspacer. The optic cups were divided into 4 to 6 sections using a corneal microscissor, and they were placed on a slide glass. […] The CNV areas were quantified using ImageJ (TABLES 11-1 and 11-2; Image software publicly available by NIH).

[5] = Mouse pharmacokinetics after SC injection, sclera+sub-retina complex (LC/MS)
Experimental: This effective dosage and administration route was evaluated in dose escalation studies by using the mouse laser-induced CNV model. […] In 1 hr, 3 hr, 6 hr, and 18 hr after the SC injection, eyeballs were extracted. Tissue from the retina and tissue from the sclera+sub-retina complex were isolated and extracted. These tissues were immediately frozen in liquid nitrogen. The tissue was subjected to LC/MS analysis for quantitation. The detection limit was 0.25 ng/g tissue.

| Rifampicin extracted from retina ([2]; 3 drops of 5 μL at 30 min intervals) | Rifampicin extracted from retina ([2]; 10 drops of 5 μL at 30 min intervals) | Ave. rifampicin delivered to sclera + sub-retina complex ([5]; SC 0.7 mg/kg, 18 hr, detection limit 0.25 ng/g tissue) | Share of rifampicin in sub-retina+sclera complex delivered to the sub-retina ([5]; SC injection) | SMILES | Drug amount detected in retina [1] | Average numbers of capillaries in high power field per eye ([3]; 0.25% rifampicin topical eye drop (Ex. 1A), three times daily P15-P19, n = 3, P value = 0.0058) | Average numbers of capillaries in high power field per eye ([3]; 0.5% rifampicin SC injection (Ex. 6A), 20 mg/kg once a day P15-P19, n = 3, P value = 0.0102) | Dosage that significantly inhibited neovascularization (effective dosage) ([4]; SC injection, mouse laser-induced CNV model) [mg/kg] | Average CNV area (%) ([4]; SC once daily 0.2 mg/kg, P >0.05 (TABLE 11-1)) | Average CNV area (%) ([4]; SC once daily 0.7 mg/kg, P 0.003 (TABLE 11-2)) | Average CNV area (%) ([4]; SC once daily 0.7 mg/kg, P 0.045 (TABLE 11-1)) | Average CNV area (%) ([4]; SC once daily 2 mg/kg, P 0.011 (TABLE 11-2)) |
| --- | --- | --- | --- | --- | --- | --- | --- | --- | --- | --- | --- | --- |
|  |  |  |  | C[C@@H]1C[C@H]2[C@@H]3CCC4=CC(=O)C=C[C@]4(C)[C@@]3(F)[C@@H](O)C[C@]2(C)[C@@]1(O)C(=O)CO [Dexamethasone] | About 33 ng/1 g ng/1 g of retinal tissues |  |  |  |  |  |  |  |
| 1,288* ng/1 g of tissues | 2,939* ng/1 g of tissues | BDL | approximately 70% | CO[C@H]1/C=C/O[C@@]2(C)Oc3c(C)c(O)c4c(O)c(c(/C=N/N5CCN(C)CC5)c(O)c4c3C2=O)NC(=O)/C(C)=C\C=C\[C@H](C)[C@H](O)[C@@H](C)[C@@H](O)[C@@H](C)[C@H](OC(C)=O)[C@@H]1C [Rifampicin, rifampicin] |  | 7.78 | 9.28 | 0.7 | 90.17 | 74.78 | 81.00 | 78.33 |
